From the NIST ThermoML archive (doi:10.1021/acs.jced.6b00680)

Key:
[1] = an = ratio of the nth substance listed; conditions: 100 kPa, Liquid, Concentric cylinders viscometry
[2] = 101.33 kPa, Liquid, Concentric cylinders viscometry

C[N+](C)(C)CCO.[Cl-] [choline chloride] + OCCO
[1], a2 = 2
Conditions	viscosity [mPa·s]
293.2 K	60.9
298.2 K	51.4
303.2 K	44.3
308.2 K	38.1
313.2 K	33.5
318.2 K	29.4
323.2 K	26.1
328.2 K	23.3
333.2 K	21.1
338.2 K	19.3
343.2 K	17.6
348.2 K	16.3
353.2 K	15.2

OCC(O)CO [glycerol]
[2]
Conditions	viscosity [mPa·s]
296.5 K	1252
302.8 K	673.4
315.8 K	260.6
323.2 K	148.9
332.7 K	97.5
343.2 K	51.9
348.2 K	42.8
354.2 K	34.9

NC(N)=O [urea] + C[N+](C)(C)CCO.[Cl-]
[1], a1 = 2
Conditions	viscosity [mPa·s]
293.2 K	1685.8
298.2 K	1012.3
303.2 K	658.5
308.2 K	454.9
313.2 K	333.6
318.2 K	259.8
323.2 K	210.6
328.2 K	179.5
333.2 K	160.8
338.2 K	142.6
343.2 K	129
348.2 K	115.6
353.2 K	106.7
